Entries after “also recorded” stand apart in the source; their conditions may differ.
How the values were obtained:
PARP [1] = experiment: Immunoblotting of protein PARylation in cells after MNNG or H2O2 treatment; assay type: cell-based, human; conditions: for H2O2-induced PARP activation (immunoblotting): 1 μM treatment
Source text: We sought to develop an approach towards a global characterization of Asp/Glu-ADP-ribosylation. […] The major cellular enzymatic activity for degrading PAR is from poly-ADP-ribose glycohydrolase (PARG)^2.
Cells and Reagents: HCT116 and HEK293T cells were purchased from ATCC and were maintained in Dulbecco's modified Eagle's medium (DMEM) supplemented with 10% fetal bovine serum. PARP inhibitors were purchased from Selleck. […] Other chemicals and reagents were obtained from Sigma unless indicated otherwise.
Immunoblotting analysis: Samples were subjected to electrophoresis using the standard SDS-PAGE method. Proteins were transferred to a nitrocellulose membrane (Whatman). Membranes were blocked with a TBST buffer (25 mM Tris-HCl, pH 7.5, 150 mM NaCl, 0.05% Tween 20) containing 3% nonfat dried milk, and probed overnight with primary antibodies at 4° C. and for 1 h at RT with peroxidase-conjugated secondary antibodies. Blots were developed using enhanced chemiluminescence, exposed on autoradiograph film and developed using standard methods.

PARP [2] = experiment: SILAC quantitative mass spectrometric analysis of the Asp/Glu-ADP-ribosylated proteome in HCT116 shPARG cells; assay type: cell-based, human; conditions: for change in protein Asp/Glu-ADP-ribosylation compared with that of Olaparib: 1 μM
Experimental: SILAC cell culture: Cells (HCT116 shPARG) were grown in the SILAC media as described previously^23. Both light and heavy DMEM were supplemented with 10% dialyzed FBS (Invitrogen). Where indicated, cells were pretreated with 1 μM Olaparib for 40 min and were stimulated with 2 mM H2O2 for 5 min We performed two experiments using this experimental design with single labeling with Lys (sample digested with Lys-C) or double labeling with Lys and Arg (sample digested with trypsin). Each experiment was composed of two technical replicate analyses. The same experiment (Lys labeling only) was repeated for four other PARP inhibitors, including A966492 (1 μM), AG14361 (1 μM), Iniparib (50 μM) and 3-AB (50 μM).
Sample preparation for mass spectrometric analysis: Cells were lysed in SDS lysis buffer (1% SDS, 10 mM HEPES pH 7.0, 2 mM MgCl2, 500 U Benzonase). Lysates were washed with SDS lysis buffer for three times using centricon ultrafiltration units (MWCO=10,000 Da, Millipore). Lysates were reduced by adding DTT to a final concentration of 3 mM, followed by incubation at room temperature for 20 min Cysteines were alkylated by adding iodoacetamide to a final concentration of 50 mM, followed by incubation in the dark for 20 min Lysates were digested with LysC (Wako) or trypsin (Promega) at a 1:100 (enzyme:substrate) ratio for 2 hrs at RT. pH of the lysates were adjusted to 8.5 and the lysates were incubated with m-aminophenylborinic acid agarose for 1 hr at RT. Beads were washed with the SDS wash buffer (1% SDS, 100 mM HEPES pH 8.5, 150 mM NaCl) for three times, and then the wash buffer (100 mM HEPES pH 8.5, 150 mM NaCl) for five times. Beads were incubated with 0.5 M NH2OH overnight. Released peptides were desalted on SepPak C18 columns (Waters) according to manufacturer's instructions.
Mass spectrometry analysis and data processing: Samples were analyzed by LC-MS/MS on an LTQ-Velos Pro Orbitrap mass spectrometer (Thermo Fischer Scientific, San Jose, Calif.) using a top twenty method^23. MS/MS spectra were searched against a composite database of the human IPI protein database and its reversed complement using the Sequest algorithm. Search parameters allowed for a static modification of 57.02146 Da for Cys and a dynamic modification of addition of 15.0109 Da to Asp and Glu, and, when applicable, the stable isotope (10.00827 Da) and (8.01420 Da) on Arg and Lys, respectively. […] Localization of ADP-ribosylation sites was assessed by the ModScore algorithm based on the observation of site-specific fragment ions^25. Sites with scores≧13 (p≦0.05) were considered localized. Peptide quantification was performed as previously described^23 and ADP-ribosylation motifs were extracted using the Motif-X algorithm using a significance threshold of P<0.001^26.

tankyrase = conditions: cited from earlier work
[3] = 1 μM Olaparib, 2 mM H2O2, HCT116 shPARG

For `NC(=O)c1cccc2[nH]c(-c3ccc([C@@H]4CCCN4)cc3F)nc12` [A96692], the “H2O2-induced PARP activation (immunoblotting)” value (PARP [1]) was “potently inhibited” and the “change in protein Asp/Glu-ADP-ribosylation compared with that of Olaparib” value (PARP [2]) was “correlated well”.

With `CN(C)Cc1ccc(-c2nc3cccc4c3n2CCNC4=O)cc1` [AG14361] the “H2O2-induced PARP activation (immunoblotting)” value (PARP [1]) was “potently inhibited” and the “change in protein Asp/Glu-ADP-ribosylation compared with that of Olaparib” value (PARP [2]) was “correlated well”.

For `NC(=O)c1ccc(I)c([N+](=O)[O-])c1` [Iniparib], the “H2O2-induced hyper-PARylation / PARP activity (immunoblotting)” value (PARP [1]; 50 μM) was “little effect”, the “change in ADP-ribosylation level of most of the identified peptides” value (PARP [2]; Iniparib 50 μM) was “less than two fold” and the “decrease of a peptide from the RNA helicase DDX21” value (PARP [2]; Iniparib 50 μM) was “about 4 fold”. The “effect on PARP activity in intact cells” value (PARP [2]; Iniparib 50 μM) was “negligible effect; also recorded: failed to inhibit PARP” and the “potency relative to 3-AB” value (PARP [2]; Iniparib 50 μM, 3-AB 50 μM) was “lower than the prototype PARP inhibitor 3-AB”.

In the case of `O=C(c1cc(Cc2n[nH]c(=O)c3ccccc23)ccc1F)N1CCN(C(=O)C2CC2)CC1` [Olaparib], the “increased PARylation after MNNG or H2O2 treatment” value (PARP [1]; PARG-depleted cells, pretreatment with the inhibitor) is reported as “blocked”, the “decrease of a peptide from the RNA helicase DDX21” value (PARP [2]; 1 μM Olaparib) is reported as “more than 11 fold” and the “modified peptides whose intensity decreased by more than two-fold” value (PARP [2]; 1 μM Olaparib 40 min pretreatment, 2 mM H2O2 5 min, HCT116 shPARG) is reported as “more than 81%”. The “ADP-ribosylation of two evolutionarily conserved Glu residues on PCNA” value (PARP [2]; [3]) was “dramatically decreased”, the “ADP-ribosylation of two tankyrase substrates, CASC3 and BLZF1” value (PARP [2]; [3]) was “little change” and the “decrease in level of PARP1 automodified peptide comprising E483” value (PARP [2]; [3]) was “approximately 120 fold”. The “sensitivity of the majority of PARylation events to treatment” value (PARP [2]; quantitative mass spectrometric analysis) was “sensitive” and the inhibition of tankyrase (tankyrase) was “does not inhibit”.

— patent US9097722B2, “PARP substrates and biomarkers” (Board of Regents, The University of Texas System, priority 2012, dated 2015)
